Columns and labels:
HCV replicon cells = experiment: HCV replicon FRET / luciferase assay; assay type: cell-based; settings: 50% reduction in FRET or luciferase activity
Experimental: FRET Assay Preparation. The HCV FRET screening assay was performed in 96-well cell culture plates. The FRET peptide (Anaspec, Inc.) (Taliani et al., Anal. Biochem. 1996, 240, 60-67) contains a fluorescence donor, EDANS, near one end of the peptide and an acceptor, DABCYL, near the other end. The fluorescence of the peptide is quenched by […] resonance energy transfer (RET) between the donor and the acceptor, but as the NS3 protease cleaves the peptide the products are released from RET quenching and the fluorescence of the donor becomes apparent. The assay reagent was made as follows: 5× cell Luciferase cell culture lysis reagent from Promega (#E153A) diluted to 1× with dH2O, NaCl added to 150 mM final, the FRET peptide diluted to 20 μM final from a 2 mM stock.
To prepare plates, HCV replicon cells, with or without a Renilla luciferase reporter gene, were trypsinized and plated in a 96-well plate with titrated test compounds added in columns 3 through 12; columns 1 and 2 contained a control compound (HCV control inhibitor), and the bottom row contained cells with DMSO only. The plates were then placed in a CO2 incubator at 37° C.
Assays. Subsequent to addition of the test compounds described above (FRET Assay Preparation), at various times the plate was removed and Alamar blue solution (Trek Diagnostics, #00-100) was added to measure cellular toxicity. After reading in a Cytoflour 4000 instrument (PE Biosystems), plates were rinsed with PBS and then used for FRET assay by the addition of 30 ul of the FRET peptide assay reagent described above (FRET Assay Preparation) per well. The plate was then placed into the Cytoflour 4000 instrument which had been set to 340 excite/490 emission, automatic mode for up to 20 cycles and the plate read in a kinetic mode. Typically, the signal to noise using an endpoint analysis after the reads was at least three-fold. Alternatively, after Alamar blue reading, plates were rinsed with PBS, then used for luciferase assay using the Promega Dual-Glo Luciferase Assay System or the Promega EnduRen Live Cell Substrate assay.
Compound analysis was performed by quantification of the relative HCV replicon inhibition and the relative cytotoxicity values. To calculate cytoxicity values, the average Alamar Blue fluorescence signals from the control wells were set as 100% non-toxic. The individual signals in each of the compound test wells were then divided by the average control signal and multiplied by 100% to determine […]. To calculate the HCV replicon inhibition values, an average background value was obtained from the two wells containing the highest amount of HCV control inhibitor at the end of the assay period. These numbers were similar to those obtained from naïve Huh-7 cells. The background numbers were then subtracted from the average signal obtained from the control wells and this number was used as 100% activity. The individual signals in each of the compound test wells were then divided by the averaged control values after background subtraction and multiplied by 100% to determine percent activity. EC50 values were calculated as the concentration which caused a 50% reduction in FRET or luciferase activity. The two numbers generated for the compound plate, percent cytoxicity and percent activity, were used to determine compounds of interest for further analysis.

HCV NS5B = molecular target: T1, HCV NS5B (Hepatitis C virus genotype 1b, UniProt Q9WMX2); experiment: HCV NS5B RdRp enzyme assay (standard or modified); assay type: biochemical; settings: HCV NS5B RdRp genotype 1b enzyme; standard or modified assay not stated
T1 construct: The protein was expressed with an 18 amino acid C-terminal truncation to enhance the solubility; made in house; host or cells: E. coli BL21(DE3), pET21a
T1 sequence (Q9WMX2 2420-2992): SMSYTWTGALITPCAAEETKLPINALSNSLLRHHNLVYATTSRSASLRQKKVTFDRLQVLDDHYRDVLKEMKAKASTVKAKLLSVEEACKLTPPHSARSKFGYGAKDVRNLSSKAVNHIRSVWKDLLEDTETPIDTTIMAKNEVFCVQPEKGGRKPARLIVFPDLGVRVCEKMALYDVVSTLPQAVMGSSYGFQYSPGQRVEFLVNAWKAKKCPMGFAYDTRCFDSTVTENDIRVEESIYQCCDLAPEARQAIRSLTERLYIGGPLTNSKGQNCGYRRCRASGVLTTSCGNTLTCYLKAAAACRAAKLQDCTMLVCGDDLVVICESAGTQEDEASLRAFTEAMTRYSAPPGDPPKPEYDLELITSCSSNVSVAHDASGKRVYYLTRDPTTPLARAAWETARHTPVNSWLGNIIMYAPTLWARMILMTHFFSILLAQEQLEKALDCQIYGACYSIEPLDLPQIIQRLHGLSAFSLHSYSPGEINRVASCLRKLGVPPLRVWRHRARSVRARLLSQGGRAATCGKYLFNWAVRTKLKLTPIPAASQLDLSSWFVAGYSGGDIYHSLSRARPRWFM
Experimental: HCV NS5B RdRp cloning, expression, and purification. The cDNA encoding the NS5B protein of HCV, genotype 1b, was cloned into the pET21a expression vector. The protein was expressed with an 18 amino acid C-terminal truncation to enhance the solubility. The E. coli competent cell line BL21(DE3) was used for expression of the protein. Cultures were grown at 37° C. for ˜4 hours until the cultures reached an optical density of 2.0 at 600 nm. The cultures were cooled to 20° C. and induced with 1 mM IPTG. Fresh ampicillin was added to a final concentration of 50 μg/ml and the cells were grown overnight at 20° C.
Cell pellets (3 L) were lysed for purification to yield 15-24 mgs of purified NS5B. The lysis buffer consisted of 20 mM Tris-HCl, pH 7.4, 500 mM NaCl, 0.5% triton X-100, 1 mM DTT, 1 mM EDTA, 20% glycerol, 0.5 mg/ml lysozyme, 10 mM MgCl2, 15 ug/ml deoxyribonuclease I, and Complete TM protease inhibitor tablets (Roche). After addition of the lysis buffer, frozen cell pellets were resuspended using a tissue homogenizer. To reduce the viscosity of the sample, aliquots of the lysate were sonicated on ice using a microtip attached to a Branson sonicator. The sonicated lysate was centrifuged at 100,000×g for 1 hr at 4° C. and filtered through a 0.2 μm filter unit (Corning).
The protein was purified using two sequential chromatography steps: Heparin sepharose CL-6B and polyU sepharose 4B (Pharmacia). The chromatography buffers were identical to the lysis buffer but contained no lysozyme, deoxyribonuclease I, MgCl2 or protease inhibitor and the NaCl concentration of the buffer was adjusted according to the requirements for charging the protein onto the column. Each column was eluted with a NaCl gradient which varied in length from 5-50 column volumes depending on the column type. After the final chromatography step, the resulting purity of the enzyme is >90% based on SDS-PAGE analysis. The enzyme was aliquoted and stored at −80° C.
Standard HCV NS5B RdRp enzyme assay. HCV RdRp genotype 1b assays were run in a final volume of 60 μl in 96 well plates (Corning 3600). The assay buffer is composed of 20 mM Hepes, pH 7.5, 2.5 mM KCl, 2.5 mM MgCl2, 1 mM DTT, 1.6 U RNAse inhibitor (Promega N2515), 0.01 mg/ml BSA (Sigma B6917), and 2% glycerol. All compounds were serially diluted (3-fold) in DMSO and diluted further in water such that the final concentration of DMSO in the assay was 2%. HCV RdRp genotype 1b enzyme was used at a final concentration of 28 nM. A polyA template was used at 6 nM, and a biotinylated oligo-dT12 primer was used at 180 nM final concentration. Template was obtained commercially (Amersham 27-4110). Biotinylated primer was prepared by Sigma Genosys. 3H-UTP was used at 0.6 μCi (0.29 μM total UTP). Reactions were initiated by the addition of enzyme, incubated at 30° C. for 60 min, and stopped by adding 25 μl of 50 mM EDTA containing SPA beads (4 μg/μl, Amersham RPNQ 0007). Plates were read on a Packard Top Count NXT after >1 hr incubation at room temperature.
Modified HCV NS5B RdRp enzyme assay. A modified enzyme assay was performed essentially as described for the standard enzyme assay except for the following: The biotinylated oligo dT12 primer was precaptured on streptavidin-coated SPA beads by mixing primer and beads in assay buffer and incubating at room temperature for one hour. Unbound primer was removed after centrifugation. The primer-bound beads were resuspended in 20 mM Hepes buffer, pH 7.5 and used in the assay at final concentrations of 20 nM primer and 0.67 μg/μl beads. Order of addition in the assay: enzyme (1.75 nM) was added to diluted compound followed by the addition of a mixture of template (0.36 nM), 3H-UTP (0.6 μCi, 0.29 μM), and primer-bound beads, to initiate the reaction; concentrations given are final. Reactions were allowed to proceed for 4 hours at 30° C.
IC50 values for compounds were determined using seven different [I]. […]

| SMILES | EC50 (HCV replicon cells; Hepatitis C virus) | IC50 (HCV NS5B) | EC50 (HCV replicon cells) |
| --- | --- | --- | --- |
| COc1ccc2c(c1)C1CC1(C(=O)N1CCN3CCC[C@@H]3C1)Cn1c-2c(C2CCCCC2)c2ccc(C(=O)NS(=O)(=O)C3CC3)cc21 (stereo partly drawn) | 0.00458 to 0.5 µM | 0.00458 to 0.5 µM |  |
| COc1ccc2c(c1)C1CC1(C(=O)N1CCN3CCC[C@H]3C1)Cn1c-2c(C2CCCCC2)c2ccc(C(=O)NS(=O)(=O)N3CCOCC3)cc21 (stereo partly drawn) | 0.00458 to 0.5 µM | 0.00458 to 0.5 µM |  |
| COc1ccc2c(c1)C1CC1(C(=O)N1CC3CN(Cc4ccccc4)CC3C1)Cn1c-2c(C2CCCCC2)c2ccc(C(=O)NS(N)(=O)=O)cc21 (stereo not drawn) | 0.00458 to 0.5 µM | 0.00458 to 0.5 µM |  |
| COc1ccc2c(c1)C1CC1(C(=O)N1C[C@@H]3CCCN3C[C@@H]1CC(C)C)Cn1c-2c(C2CCCCC2)c2ccc(C(=O)NS(=O)(=O)N(C)C)cc21 (stereo partly drawn) | 0.00458 to 0.5 µM | 0.00458 to 0.5 µM |  |
| COc1ccc2c(c1)C1CC1(C(=O)N1CC3CCCN(C(C)=O)C3C1)Cn1c-2c(C2CCCCC2)c2ccc(C(=O)NS(=O)(=O)N(C)C)cc21 (stereo not drawn) [drawing 34] | 0.00458 to 0.5 µM | 0.00458 to 0.5 µM |  |
| COc1ccc2c(c1)C1CC1(C(=O)N1CC3CN(C(C)=O)CC3C1)Cn1c-2c(C2CCCCC2)c2ccc(C(=O)NS(=O)(=O)C3CC3)cc21 (stereo not drawn) | 0.00458 to 0.5 µM | 0.00458 to 0.5 µM |  |
| COc1ccc2c(c1)C1CC1(C(=O)N1CC3CCCNC3C1)Cn1c-2c(C2CCCCC2)c2ccc(C(=O)NS(=O)(=O)N(C)C)cc21 (stereo not drawn) | 0.00458 to 0.5 µM | 0.00458 to 0.5 µM |  |
| COc1ccc2c(c1)C1CC1(C(=O)N1CCN3CCCC3C1)Cn1c-2c(C2CCCCC2)c2ccc(C(=O)NS(=O)(=O)N3CCC3)cc21 (stereo not drawn) | 0.00458 to 0.5 µM | 0.00458 to 0.5 µM |  |
| COc1ccc2c(c1)C1CC1(C(=O)N1CC3CCCN(C(=O)OC(C)(C)C)C3C1)Cn1c-2c(C2CCCCC2)c2ccc(C(=O)NS(=O)(=O)N(C)C)cc21 (stereo not drawn) [drawing 24] | 0.00458 to 0.5 µM | 0.00458 to 0.5 µM |  |
| COc1ccc2c(c1)C1CC1(C(=O)N1CCC[C@H]3CN(Cc4ccccc4)C[C@H]31)Cn1c-2c(C2CCCCC2)c2ccc(C(=O)NS(=O)(=O)C3CC3)cc21 (stereo partly drawn) | 0.00458 to 0.5 µM | 0.00458 to 0.5 µM |  |
| COc1ccc2c(c1)C1CC1(C(=O)N1CCN3CCCC3C1)Cn1c-2c(C2CCCCC2)c2ccc(C(=O)NS(=O)(=O)N(C)C)cc21 (stereo not drawn) | 0.00458 to 0.5 µM | 0.00458 to 0.5 µM |  |
| COc1ccc2c(c1)C1CC1(C(=O)N1CCN3CCC[C@H]3C1)Cn1c-2c(C2CCCCC2)c2ccc(C(=O)NS(=O)(=O)N3CCC3)cc21 (stereo partly drawn) | 0.00458 to 0.5 µM | 0.00458 to 0.5 µM |  |
| CNC(=O)N1CCCC2CN(C(=O)C34CC3c3cc(OC)ccc3-c3c(C5CCCCC5)c5ccc(C(=O)NS(=O)(=O)N(C)C)cc5n3C4)CC21 (stereo not drawn) | 0.00458 to 0.5 µM | 0.00458 to 0.5 µM |  |
| COc1ccc2c(c1)C1CC1(C(=O)N1CC3CCCN(C(=O)OC(C)(C)C)C3C1)Cn1c-2c(C2CCCCC2)c2ccc(C(=O)NS(=O)(=O)N(C)C)cc21 (stereo not drawn) [drawing 20] |  | 0.00458 to 0.5 µM | 0.00458 to 0.5 µM |
| COc1ccc2c(c1)C1CC1(C(=O)N1CCC[C@H]3CNC[C@H]31)Cn1c-2c(C2CCCCC2)c2ccc(C(=O)NS(=O)(=O)N(C)C)cc21 (stereo partly drawn) | 0.00458 to 0.5 µM | 0.00458 to 0.5 µM |  |
| COc1ccc2c(c1)C1CC1(C(=O)N1CCC[C@H]3CN(C)C[C@H]31)Cn1c-2c(C2CCCCC2)c2ccc(C(=O)NS(=O)(=O)N(C)C)cc21 (stereo partly drawn) | 0.00458 to 0.5 µM | 0.00458 to 0.5 µM |  |
| COc1ccc2c(c1)C1CC1(C(=O)N1CC3CN(C)CC3C1)Cn1c-2c(C2CCCCC2)c2ccc(C(=O)NS(=O)(=O)C3CC3)cc21 (stereo not drawn) | 0.00458 to 0.5 µM | 0.00458 to 0.5 µM |  |
| COc1ccc2c(c1)C1CC1(C(=O)N1CC3CNCC3C1)Cn1c-2c(C2CCCCC2)c2ccc(C(=O)NS(N)(=O)=O)cc21 (stereo not drawn) | > 0.5 µM | 0.00458 to 0.5 µM |  |
| COc1ccc2c(c1)C1CC1(C(=O)N1C[C@@H]3CCCN3C[C@@H]1Cc1ccccc1)Cn1c-2c(C2CCCCC2)c2ccc(C(=O)NS(=O)(=O)N(C)C)cc21 (stereo partly drawn) | 0.00458 to 0.5 µM | 0.00458 to 0.5 µM |  |
| COc1ccc2c(c1)C1CC1(C(=O)N1CCN3CCCC3C1)Cn1c-2c(C2CCCCC2)c2ccc(C(=O)NS(=O)(=O)C3CC3)cc21 (stereo not drawn) | 0.00458 to 0.5 µM | 0.00458 to 0.5 µM |  |
| COc1ccc2c(c1)C1CC1(C(=O)N1CC3CCCN(C(C)=O)C3C1)Cn1c-2c(C2CCCCC2)c2ccc(C(=O)NS(=O)(=O)N(C)C)cc21 (stereo not drawn) [drawing 36] |  | 0.00458 to 0.5 µM | 0.00458 to 0.5 µM |
| COc1ccc2c(c1)C1CC1(C(=O)N1CC3CN(C(C)=O)CC3C1)Cn1c-2c(C2CCCCC2)c2ccc(C(=O)NS(=O)(=O)N(C)C)cc21 (stereo not drawn) | 0.00458 to 0.5 µM | 0.00458 to 0.5 µM |  |
| COc1ccc2c(c1)[C@@H]1C[C@]1(C(=O)N1CCN3CCC[C@H]3C1)Cn1c-2c(C2CCCCC2)c2ccc(C(=O)NS(=O)(=O)N(C)C)cc21 | 0.00458 to 0.5 µM | 0.00458 to 0.5 µM |  |
| CCS(=O)(=O)NC(=O)c1ccc2c(C3CCCCC3)c3n(c2c1)CC1(C(=O)N2CCN4CCCC4C2)CC1c1cc(OC)ccc1-3 (stereo not drawn) | 0.00458 to 0.5 µM | 0.00458 to 0.5 µM |  |
| COc1ccc2c(c1)C1CC1(C(=O)N1CC3CN(C(=O)N4CCCC4)CC3C1)Cn1c-2c(C2CCCCC2)c2ccc(C(=O)NS(=O)(=O)N(C)C)cc21 (stereo not drawn) | 0.00458 to 0.5 µM | 0.00458 to 0.5 µM |  |
| COc1ccc2c(c1)C1CC1(C(=O)N1CC3CNCC3C1)Cn1c-2c(C2CCCCC2)c2ccc(C(=O)NS(=O)(=O)C3CC3)cc21 (stereo not drawn) | > 1 µM | 0.00458 to 0.5 µM |  |
| COc1ccc2c(c1)C1CC1(C(=O)N1CC3CCCNC3C1)Cn1c-2c(C2CCCCC2)c2ccc(C(=O)NS(=O)(=O)C3CC3)cc21 (stereo not drawn) | 0.00458 to 0.5 µM | 0.00458 to 0.5 µM |  |
